Assay results: patent US9255062B2, “Fatty acid derivatives for oral administration endowed with high palatability” (priority 2008, dated 2016)

Assays:
Swiss mice = conditions: oral administration
in vivo = conditions: both, Swiss, mouse, po
Caco-2 cells = assay: Ussing chamber, short circuit current in Caco-2 monolayer, baseline conditions; format: cell-based, human; conditions: Caco-2 in Ussing chamber; for decrease in short circuit current (ΔIsc), maximum effect: final concentration 10 mM; for decrease in short circuit current (ΔIsc), maximum effect / time of maximum decrease in Isc after addition: luminal (mucosal) side; for effect on tissue conductance: luminal side, measure of tissue integrity
Experimental: The experiments were carried out using a human intestinal cell line called Caco-2, obtained from the American Type Culture Collection (ATCC, Rockville, USA). These cells, 15 days after confluence, form a monolayer of enterocytes with morphological and functional features identical to those of ileal enterocytes at the apex of the villus (Berni Canani R, et al. Gastroenterology 2003; 124:368-76). Cells were grown in a culture medium consisting in Dulbecco's Modified Eagle's Medium (DMEM) containing glucose (4.5 g/L), 10% Fetal Calf Serum (FCS), 1% non-essential amino acids, 1% L-glutamine, 1% sodium pyruvate, streptomycin ([…]), penicillin ([…]), and were incubated at 37° C. in an atmosphere of 5% CO2 and […]. The culture medium was replaced every day.
For all the experiments were used cells at the 30th-40th pass, 2×10^6 cells per filter, grown on polycarbonate supports (pore size 0.4 μm, diameter 24.5 mm) for 15 days post-confluence. Each support containing the cells was mounted in an Ussing chamber (World Precision Instruments, Sarasota, Fla.) as a cellular monolayer between the luminal and the serosal compartments (Berni Canani R, et al. J. Pediatr. Gastroenterol. Nutr. 28: 315-320, 1999). The Ussing chamber system, allows through the measurement of defined electrical parameters, the study of transepithelial transport of water and electrolytes. These parameters consist in: 1) transepithelial potential difference (PD) and short circuit current (Isc), an expression of the transepithelial passage of ions; 2) resistance (RT) and, ionic conductance (G), a measure of tissue integrity. An absorptive-type stimulus on transepithelial transport induces a decrease in Isc, whereas a secretory-type stimulus induces an increase in Isc. The Isc is expressed in microamperes per square centimeter (μA/cm^2), conductance in millisiemens per square centimeter (mS/cm^2) and the transepithelial potential difference in millivolts (mV). Measurement of these electrical parameters is made possible by the presence of silver electrodes, placed proximally to both sides (serosal and luminal) of the cellular monolayer and connected with an automatic voltage system equipped with software for data acquisition and processing (DVC 1000, World Precision Instruments, Sarasota, Fla., USA). Each compartment contained 10 ml of Ringer's solution with the following composition (in mmol/L): NaCl, 114; KCl, 5; NaH2PO4, 0.3; Na2HPO4, 1.65; CaCl2, 1.25; MgCl2, 1.1; NaHCO3, 25; glucose, 10. The incubation liquid was circulated through the chamber by means of the flow of a gaseous mixture composed of 95% O2 and 5% CO2 and was maintained at a temperature of 37° C. by means of a thermostat (Berni Canani R. et al. J. Pediatr. Gastroenterol. Nutr. 28: 315-320, 1999). The study of changes in electrical parameters reflecting changes in transepithelial transport of water and electrolytes was carried out in baseline conditions and after administration of the compounds on the luminal side of the monolayer of Caco-2 cells.

Compound	LD50 expressed as equivalent of butyric acid (Swiss mice) [g]	LD50 (in vivo) [mg/kg]	decrease in short circuit current (ΔIsc), maximum effect (Caco-2 cells) [μA/cm^2]	time of maximum decrease in Isc after addition (Caco-2 cells)	effect on tissue conductance (Caco-2 cells)
CCCC(=O)NC(Cc1ccccc1)C(N)=O (stereo not shown) [Compound 1, N-(1-carbamoyl-2-phenyl-ethyl)butyramide]	8.8	23800	−0.9±0.3	approximately 40 minutes	without interfering with the stability of tissue conductance
CCCC(=O)NC(=O)C(Cc1ccccc1)NC(=O)CCC (stereo not shown) [Compound 2, N-(1-butyroyl-carbamoyl-2-phenyl-ethyl)butyramide]	8.8	16300	−0.4±0.1	40 to 45 min	without interfering with the stability of tissue conductance
CCCC1=NC(=O)C(Cc2ccccc2)N1 (stereo not shown) [Compound 3, 5-benzyl-2-propyl-1H-imidazol-4(5H)-one]	8.8	21600	−1.1±0.1	50 min	absence of any significant changes in tissue conductance
CCCC(=O)O [butyric acid, reference compound]	–	8800	–	–	–
CCCC(=O)[O-].[Na+] [sodium butyrate, reference compound]	–	–	−0.8±0.2	approximately 35 minutes	did not alter tissue conductance
